Source: publication PMC12120661, “Synthesis and Biological Evaluation of 4‑(4-Nitrophenyl)‑1H‑1,2,3-triazole Derivatives as Antitrypanosomal Agents” (ACS Omega, 2025)
Read-outs that look alike come from different tables or passages of the source.

Assays:
trans-sialidase (TcTS) = conditions: literature, cited from earlier work; for inhibition of trans-sialidase: in words
[1] = test system: T. cruzi intracellular amastigotes (Colombian strain) in LLC-MK2 cells; assay: Antiamastigote activity, infection index, treatment after infection, LLC-MK2; type: cell-based, Trypanosoma cruzi; conditions: infected LLC-MK2, 48 h treatment after infection
Protocol: (§1) Considering the dynamics of T. cruzi infection in humans, characterized by an increase in parasitic load through intracellular replication of amastigote forms in various cell types, we evaluated the action of the compounds in LLC-MK2 (epithelial cells) and C2C12 (myoblasts) using an in vitro infection model.
(§2) The antiamastigote activity was assessed by calculating the infection index, defined as the percentage of infected cells multiplied by the mean number of amastigotes per cell. Noninfected control cells were subjected to identical treatment conditions to evaluate the cytotoxicity of the compounds (CC50). This comprehensive approach allowed for the simultaneous assessment of antiparasitic efficacy and compound-induced cytotoxicity, offering valuable insights into their therapeutic potential.
(§3) In the infection plate each well was added 50 μL of cold methanol for cell fixation. The plate was kept at −20 °C for 1 h. After this period, the wells were blocked with 50 μL of PBS 1X-Saponin 0.1 + 10% rabbit serum for 10 min at room temperature. Following, the wells were washed four times with PBS 1X-Saponin 0.1% and 50 μL of the same solution was added to each well, incubating for 20 min at room temperature. Subsequently, 50 μL of PBS 1X-Saponin 0.1% + anti-T. cruzi antibody (from serum of infected patients) at a 1:10 dilution was added, and the plate was incubated for 1 h at room temperature. The wells were then washed four times with PBS 1X-Saponin 0.1%, and 50 μL of PBS 1X-Saponin 0.1% + antihuman IgG-FITC at a 1:200 dilution was added. The plate was incubated wrapped in aluminum foil for 30 min. After incubation, the plate was washed four times with PBS 1X-Saponin 0.1%, and 50 μL of PBS 1X was added to all wells after the final wash. For nuclear staining, the plate, already stained with FITC, was washed three times with PBS 1X, and 200 μL of PBS 1X + 1 μL of iodide per well was added. After staining, the wells were washed again, and 100 μL of PBS 1X was added before imaging.
(§4) The plate was analyzed in the EVOS fluorescence microscope for image acquisition and fluorescence identification, in which the anti-IgG-FITC stains parasite′s membrane in green and iodide stains nuclei in red. On each condition of treatment, 200 cells of 3 wells were evaluated as to the number of infected cells and the number of parasites per cell for calculating the index of infection the IC50 were calculated by Nonlinear regression curves (log[inhibitor] vs normalized response). Selective index was calculated by dividing CC50 per IC50.

[2] = test system: trypomastigotes forms of T. cruzi Tulahuen strain (LacZ); parameters: method as in de Andrade et al., 2015; conditions: previous work of the group; ref de Andrade et al., 2015; read-out: IC50 against trypomastigotes forms of T. cruzi Tulahuen strain (LacZ); cited from earlier work
[3] = test system: T. cruzi Tulahuen CL2 β-galactosidase strain; assay: Antitrypanosomal screening, anti-T. cruzi (trypomastigote) activity, CPRG photometric method; type: cell-based; conditions: Trypanosoma cruzi; Tulahuen CL2 β-galactosidase strain on MRC-5SV2; values in parentheses mean ± SEM of two experiments
Protocol: A preliminary assay was conducted to evaluate the analogs’ in vitro cytotoxicity and antitrypanosomatid activity against T. cruzi Tulahuen strain (Table ). […] However, the promising results of analog 16 encouraged us to conduct more in-depth studies on this compound.
Anti-parasitic assays were conducted following established protocols outlined in earlier literature. In brief, for assessing anti-T. cruzi activity, the Tulahuen CL2 β-galactosidase strain (nifurtimox-sensitive) was employed and maintained on MRC-5SV2 (human lung fibroblast). A total of 4 × 10^3 cells were infected with 4 × 10^4 parasites per well. The synthesized analogs were tested at concentrations ranging from 1.56 to 50.00 μM. Parasite burdens were evaluated after the addition of the substrate CPRG (chlorophenol red ß-D-galactopyranoside). The change in color was measured spectrophotometrically at 540 nm after 4 h of incubation at 37°C. In all assays, parasite growth was compared to untreated-infected controls (100% growth) and noninfected controls (0% growth). Results were expressed as the percentage of parasite reduction at different drug concentrations and used to calculate IC50 values from the dose–response curves.

[4] = test system: T. cruzi nitroreductase (TcNTR72); assay: T. cruzi nitroreductase activity assay (NADH oxidation); conditions: 50 μM NADH, 25 °C
Protocol: TcNTR72 was expressed, purified, and its activity was tested following previously described protocol. […] This mixture was incubated at room temperature for 5 min. […] All assays were performed in triplicate for each measurement and for each concentration. Benznidazole was used as a control.

[5] = Cellular viability (MTT), noninfected C2C12; type: cell-based, murine; conditions: mouse, noninfected C2C12 myoblast cells; noninfected C2C12, Table 2 (treatment after infection); read-out: CC50 non infected C2C12
Protocol: as §2
The LLC-MK2 (ATCC CCL-7) cell line of epithelial origin, and C2C12 (ATCC CRL-1772) myoblast cells, derived from murine myoblasts, were maintained in Roswell Park Memorial Institute-RPMI 1640 medium supplemented with L-glutamine, 25 mM HEPES (Corning), 10% (v/v) fetal bovine serum (FBS), and gentamicin (1 μL/mL). […] Once the cells reached 80% confluence, were detached using Trypsin-EDTA and prepared in the subsequent experiments.
(§5) Following 24 h of treatment, 10 μL of 5 mg/mL of MTT (3-(4,5-dimethylthiazol-2-yl)-2,5-diphenyltetrazolium bromide) was added per well, and absorbance was evaluated in the Eon Microplate Spectrophotometer Reader (BioTek) at 570–690 nm. CC50 were calculated by Nonlinear regression curves (log[inhibitor] vs normalized response).

[6] = test system: T. cruzi intracellular amastigotes (Colombian strain) in C2C12 cells; assay: Antiamastigote activity, infection index, treatment after infection, C2C12; type: cell-based, Trypanosoma cruzi; conditions: Trypanosoma cruzi; infected C2C12, 48 h treatment after infection
Protocol: as §1, §2, §3, §4

[7] = Cellular viability (MTT), noninfected LLC-MK2; type: cell-based; conditions: rhesus monkey, noninfected LLC-MK2 epithelial cells; noninfected LLC-MK2, Table 2 (treatment after infection); read-out: CC50 non infected MK2
Protocol: as §2, §5

[8] = Cytotoxicity against primary mouse macrophages; type: cell-based
Text: 1 In Vitro Anti- T. cruzi (Trypomastigote) Activity and Cytotoxicity Assessment of Hit 1 Analogs ^a | column: PMM CC50 (μM)

[9] = Preliminary cytotoxicity assay, resazurin; type: cell-based; conditions: human MRC-5 cell line, 3 days incubation
Protocol: MRC-5SV2 cell cytotoxicity was assessed following the methodology outlined in earlier literature. Briefly, cells at a concentration of 1.5 × 10^5 cells/mL were cultured with compound dilutions at 37 °C and 5% CO2. Cell growth was compared to untreated-control wells (100% cell growth) and medium-control wells (0% cell growth). After 3 days of incubation, cell viability was fluorometrically assessed following the addition of 50-μL resazurin per well. Fluorescence was measured after 4 h at 37 °C (λex 550 nm, λem 590 nm). The results were expressed as the percentage reduction in cell growth/viability compared to control wells, and an IC50 value was determined.

[10] = mouse, primary mouse macrophages (PMM)

## CC(=O)NC1C(O)C(F)C(F)(C(=O)O)OC1C(O)C(O)CO (stereo not drawn) [2,3-difluorosialic acid]
trans-sialidase (TcTS); irreversible inhibitors
  Ki: 20000 µM

## O=C(Cn1ccnc1[N+](=O)[O-])NCc1ccccc1 [BZN, reference compound]
[1]; Trypanosoma cruzi, LLC-MK2, 48 h
  IC50: 1.43 ± 0.1 µM
[1]
  IC50: 1.4 ± 0.1 µM
[2]
  IC50: 34 µM
[3]
  IC50: 1.64 µM
[4]; compound 12.5 μM
  Kobs (12.5 μM): 0.13 ± 0.01 s^–1
[4]; compound 25 μM
  Kobs (25 μM): 0.17 ± 0.05 s^–1
[4]; compound 50 μM
  Kobs (50 μM): 0.32 ± 0.04 s^–1
[4]; compound 100 μM
  Kobs (100 μM): 0.23 ± 0.07 s^–1
[5]
  CC50 at 24 h: 74.4 µM
[6]
  IC50: 6 ± 1 µM
[7]
  CC50 at 24 h: 46.9 µM

## O=C(Cn1cc(-c2ccc([N+](=O)[O-])cc2)nn1)NCc1ccccn1 [Compound 10, 2-(4-(4-Nitrophenyl)-1H-1,2,3-triazol-1-yl)-N-(yridine-2-ylmethyl)acetamide]
[8]; [10]
  CC50: > 50 µM
[3]
  IC50: > 50 µM
[9]; MRC-5SV2 lung fibroblast cells
  CC50 at 3 days: > 50 µM

## O=C(Cn1cc(-c2ccc([N+](=O)[O-])cc2)nn1)NCc1cccnc1 [Compound 11, 2-(4-(4-Nitrophenyl)-1H-1,2,3-triazol-1-yl)-N-((pyridin-3-yl)methyl)acetamide]
[8]; [10]
  CC50: > 50 µM
[3]
  IC50: > 50 µM
[9]; MRC-5SV2 lung fibroblast cells
  CC50 at 3 days: > 50 µM

## O=C(Cn1cc(-c2ccc([N+](=O)[O-])cc2)nn1)NCc1ccc(O)cc1 [Compound 12, N-(4-Hydroxybenzyl)-2-(4-(4-nitrophenyl)-1H-1,2,3-triazol-1-yl)acetamide]
[8]; [10]
  CC50: > 50 µM
[3]
  IC50: 31 µM
[9]; MRC-5SV2 lung fibroblast cells
  CC50 at 3 days: > 50 µM

## N#Cc1ccc(CNC(=O)Cn2cc(-c3ccc([N+](=O)[O-])cc3)nn2)cc1 [Compound 13, N-(4-Cyanobenzyl)-2-(4-(4-nitrophenyl)-1H-1,2,3-triazol-1-yl)acetamide]
[8]; [10]
  CC50: 35.4 µM
[3]
  IC50: > 50 µM
[9]; MRC-5SV2 lung fibroblast cells
  CC50 at 3 days: > 50 µM

## N#Cc1ccc(Cn2cc(-c3ccc([N+](=O)[O-])cc3)nn2)cc1 [Compound 15, 4-((4-(4-Nitrophenyl)-1H-1,2,3-triazol-1-yl)methyl)benzonitrile]
[8]; [10]
  CC50: > 50 µM
[3]
  IC50: > 50 µM
[9]; MRC-5SV2 lung fibroblast cells
  CC50 at 3 days: > 50 µM

## O=C(O)Cn1cc(-c2ccc([N+](=O)[O-])cc2)nn1 [Compound 17, 2-(4-(4-Nitrophenyl)-1H-1,2,3-triazol-1-yl)acetic Acid]
[8]; [10]
  CC50: > 50 µM
[3]
  IC50: > 50 µM
[9]; MRC-5SV2 lung fibroblast cells
  CC50 at 3 days: > 50 µM

## O=C(O)c1ccc(Cn2cc(-c3ccc([N+](=O)[O-])cc3)nn2)cc1 [Compound 18, 4-((4-(4-Nitrophenyl)-1H-1,2,3-triazol-1-yl)methyl)benzoic Acid]
[8]; [10]
  CC50: > 50 µM
[3]
  IC50: > 50 µM
[9]; MRC-5SV2 lung fibroblast cells
  CC50 at 3 days: > 50 µM

## O=[N+]([O-])c1ccc(Cn2cc(-c3ccc(CO)cc3)nn2)cc1 [Compound 21, (4-(1-(4-Nitrobenzyl)-1H-1,2,3-triazol-4-yl)phenyl)methanol]
[8]; [10]
  CC50: > 50 µM
[3]
  IC50: > 50 µM
[9]; MRC-5SV2 lung fibroblast cells
  CC50 at 3 days: > 50 µM

## O=[N+]([O-])c1ccc(Cn2cc(-c3cccnc3)nn2)cc1 [Compound 22, 3-(1-(4-Nitrobenzyl)-1H-1,2,3-triazol-4-yl)pyridine]
[8]; [10]
  CC50: > 50 µM
[3]
  IC50: 4.17 µM
[9]; MRC-5SV2 lung fibroblast cells
  CC50 at 3 days: 5.06 µM

## Nc1ccc(-c2cn(Cc3ccc([N+](=O)[O-])cc3)nn2)cc1 [Compound 23, 4-(1-(4-Nitrobenzyl)-1H-1,2,3-triazol-4-yl)aniline]
[8]; [10]
  CC50: > 50 µM
[3]
  IC50: > 50 µM
[9]; MRC-5SV2 lung fibroblast cells
  CC50 at 3 days: > 50 µM

## O=[N+]([O-])c1ccc(Cn2cc(-c3ccc([N+](=O)[O-])cc3)nn2)cc1 [Compound 24, 1-(4-Nitrobenzyl)-4-(4-nitrophenyl)-1H-1,2,3-triazole]
[8]; primary mouse macrophages, read-out: PMM CC50
  CC50: > 50 µM
[3]
  IC50: > 50 µM
[9]
  CC50 at 3 days: > 50 µM

## Cn1cncc1-c1cn(Cc2ccc([N+](=O)[O-])cc2)nn1 [Compound 25, 4-(1-Methyl-1H-imidazol-5-yl)-1-(4-nitrobenzyl)-1H-1,2,3-triazole]
[8]; [10]
  CC50: > 50 µM
[3]
  IC50: > 50 µM
[9]; MRC-5SV2 lung fibroblast cells
  CC50 at 3 days: > 50 µM

## COc1cccc(-c2cn(Cc3ccc([N+](=O)[O-])cc3)nn2)c1 [Compound 26, 4-(3-Methoxyphenyl)-1-(4-nitrobenzyl)-1H-1,2,3-triazole]
[8]; [10]
  CC50: > 50 µM
[3]
  IC50: > 50 µM
[9]; MRC-5SV2 lung fibroblast cells
  CC50 at 3 days: > 50 µM

## O=[N+]([O-])c1ccc(Cn2cc(-c3ccccc3CO)nn2)cc1 [Compound 27, (2-(1-(4-Nitrobenzyl)-1H-1,2,3-triazol-4-yl)phenyl)methanol]
[8]; [10]
  CC50: > 50 µM
[3]
  IC50: > 50 µM
[9]; MRC-5SV2 lung fibroblast cells
  CC50 at 3 days: > 50 µM

## COc1cc(OC)cc(-c2cn(Cc3ccc([N+](=O)[O-])cc3)nn2)c1 [Compound 28, 4-(3,5-Dimethoxyphenyl)-1-(4-nitrobenzyl)-1H-1,2,3-triazole]
[8]; [10]
  CC50: > 50 µM
[3]
  IC50: > 50 µM
[9]; MRC-5SV2 lung fibroblast cells
  CC50 at 3 days: > 50 µM

## CCOC(=O)C1=C[C@@H](OC(CC)CC)[C@H](NC(C)=O)[C@@H](N)C1 [Oseltamivir]
trans-sialidase (TcTS)
  inhibition of trans-sialidase: weak inhibition of trans-sialidase in the millimolar range

## CC(=O)N[C@H]1[C@H]([C@H](O)[C@H](O)CO)OC(C(=O)O)=C[C@@H]1N=C(N)N [Zanamivir]
trans-sialidase (TcTS)
  inhibition of trans-sialidase: weak inhibition of trans-sialidase in the millimolar range

## OC[C@@H](O)[C@@H](O[C@@H]1O[C@H](CO)[C@H](O)[C@H](O)[C@H]1O)[C@H](O)[C@@H](O)CO [lactitol]
trans-sialidase (TcTS); acceptor analog
  IC50: 570 µM
